Literature values, collected in patent US20210393522A1, “COMPOSITIONS FOR SOLUBILIZING WATER-INSOLUBLE ACTIVE INGREDIENTS” (priority 2020, published 2021).

Legend:
[1] = oil-based delivery systems; humans; Agurell 1981

## C=C(C)[C@@H]1CCC(C)=C[C@H]1c1c(O)cc(CCCCC)cc1O [CBD, cannabidiol]
[1]
  Share of total CBD absorbed: 4%

## CC(C)(Sc1cc(C(C)(C)C)c(O)c(C(C)(C)C)c1)Sc1cc(C(C)(C)C)c(O)c(C(C)(C)C)c1 [Probucol, 4,4′-[Propane-2,2-diylbis(thio)]bis(2,6-di-tert-butylphenol)]
other
  Solubility in water: 5 nanograms per ml
